The results in this text go back to patent publication US7682630B2, “Antitumor agent and process for producing the same” (priority 2003, dated 2010).

The nature of data set [1]: Release of free drug from the dialysis bag. Type of data set: physicochemical. The conditions noted are these: same dialysis setting. The method, then: It is of importance that large molecular weight polymeric drugs having apparent molecular size larger than 10.000, preferably more than 50 KDa such as SMA-anthracyclin micelles, to exert tumor seeking EPR-effect, and thereby ultimately releasing free drug. To verify the drug complexes of the present invention release free drug from the micelle or polymeric conjugate in vitro, 20 mg of SMA-doxorubicin conjugates or SMA-pirarubicin conjugates was dissolved in 5 ml H2O and placed in sealed dialysis bag (M. W cut off 1.000; Spectrapor, Spectrum Laboratories Inc. CA. USA.). The dialysis bag was submerged in 25 ml of H2O with adjusted pH either at 7.4 to resemble circulating blood or pH 5.5 for tumor tissue, using 0.01 M NaOH and 0.01 M HCl, and incubated at 37° C. for several days in the dark. […] The released pirarubicin or doxorubicin outside the dialysis bag was collected at pre-determined time and amount was quantified by absorbance at 480 nm.
When the outside solution was replaced by ethanol the release rate has increased tremendously indicating the disruption of the hydrophobic interaction in the complex between the anthracyclins and the styrene hydrophobic moiety of SMA. One can envisage this hydrophobic environment would be more close to the endosome after internalization of the polymeric micelle into cytoplasm of cancer cell by endocytosis. […]

Data set [2] is described as follows: Side effects / hematological toxicity in S-180 bearing mice. Type of data set: in vivo. To be noted: 10 mg/kg iv. As for the experimental part: S-180 bearing mice with tumors of about 5-7 mm in diameter were used for this study. Full blood analysis was performed weekly for 4 weeks before and after 1, 2 and 3 weeks of iv injections of either doxorubicin, pirarubicin or their SMA micelle complexes as described above. Blood biochemistry including, alanine aminotransferase (ALT), aspartate aminotransferase (AST), lactic dehydrogenase (LDH) and total creatine phosphokinase (CPK) were measured at 36 hr after i.v. administration of either free drugs or SMA-micelle complexes.
At the same time, the heart, spleen, liver and kidney tissues were stained with hematoxylin-eosin (H&E staining) for determination of cytological tissue toxicity.

The structures appear in SMILES notation.

As to `COc1cccc2c1C(=O)c1c(O)c3c(c(O)c1C2=O)CC(O)(C(=O)CO)CC3OC1CC(N)C(OC2CCCCO2)C(C)O1` (centres unmarked) [Free pirarubicin, pirarubicin], in data set [1], the “time for free drug to extravasate out of the dialysis tube” value is “within a few hours”. In data set [2] (1 week), the Erythrocyte is 490.6 ± 144 ×10,000/mm^3, the Hemoglobin is 11.1 ± 0.9 g/dL, the Leucocyte was 2533 ± 108 /mm^3 and the “Survival Rate” value worked out at 100%. In data set [2] (1 week), the Thrombocyte is 67.7 ± 0.9 ×1,000/mm^3. In addition, in data set [2] (2 week), the Erythrocyte is 876 ×10,000/mm^3, the Hemoglobin amounted to 12.1 g/dL, the Leucocyte is on record as 5000 /mm^3 and the “Survival Rate” value was determined as 25%. For the same compound, the Thrombocyte in data set [2] (2 week) is on record as 130 ×1,000/mm^3. In data set [2] (3 week), the Erythrocyte is listed as 916 ×10,000/mm^3, the Hemoglobin came to 15.7 g/dL, the Leucocyte was 4500 /mm^3 and the “Survival Rate” value came out at 25%. The Thrombocyte in data set [2] (3 week) is 143 ×1,000/mm^3.
In the case of `COc1cccc2c1C(=O)c1c(O)c3c(c(O)c1C2=O)C[C@@](O)(C(=O)CO)C[C@@H]3O[C@H]1C[C@H](N)[C@H](O)[C@H](C)O1` [doxorubicin], in data set [1], the “time for free drug to extravasate out of the dialysis tube” value is “within a few hours”.
